From patent publication US10099998B2, “Compound, and separation method, synthesis method and use thereof” (BEIJING PEKING UNIVERSITY WBL BIOTECH CO., LTD., priority 2015, dated 2018)

Target: T1, HMG-CoA reductase (Rattus norvegicus, UniProt P51639)
T1 construct: the male rat liver was removed and rinsed with KESD buffer; from tissue; host or cells: male rat liver microsomes
T1 sequence (P51639 1-887): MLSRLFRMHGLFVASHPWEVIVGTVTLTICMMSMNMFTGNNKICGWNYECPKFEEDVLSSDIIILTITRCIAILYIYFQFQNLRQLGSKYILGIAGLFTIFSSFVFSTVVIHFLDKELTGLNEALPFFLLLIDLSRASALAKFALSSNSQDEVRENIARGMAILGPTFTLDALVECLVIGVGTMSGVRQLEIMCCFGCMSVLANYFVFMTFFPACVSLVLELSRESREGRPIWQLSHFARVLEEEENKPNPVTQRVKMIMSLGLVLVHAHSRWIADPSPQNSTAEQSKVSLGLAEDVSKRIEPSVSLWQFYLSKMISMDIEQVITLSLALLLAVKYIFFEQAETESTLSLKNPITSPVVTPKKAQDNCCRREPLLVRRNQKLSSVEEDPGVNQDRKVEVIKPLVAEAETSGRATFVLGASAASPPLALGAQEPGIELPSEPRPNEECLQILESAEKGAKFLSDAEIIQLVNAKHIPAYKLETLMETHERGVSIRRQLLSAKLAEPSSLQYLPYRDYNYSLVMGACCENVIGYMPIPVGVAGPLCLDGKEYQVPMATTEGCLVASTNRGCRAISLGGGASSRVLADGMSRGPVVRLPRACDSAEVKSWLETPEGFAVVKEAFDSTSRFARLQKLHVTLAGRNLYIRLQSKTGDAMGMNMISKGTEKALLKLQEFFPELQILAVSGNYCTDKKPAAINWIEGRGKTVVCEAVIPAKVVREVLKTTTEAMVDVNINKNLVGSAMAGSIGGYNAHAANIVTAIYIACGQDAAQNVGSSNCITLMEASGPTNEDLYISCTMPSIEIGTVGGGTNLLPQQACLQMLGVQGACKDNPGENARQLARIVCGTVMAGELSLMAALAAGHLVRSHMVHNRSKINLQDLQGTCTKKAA
Experiment: Assay on HMG-CoA reductase-inhibiting activity (decreasing rate of OD340)
Format: biochemical
Settings: for Inhibition rate (%): rat liver microsomes, 37° C., pH 6.8; for Slope (decreasing rate of OD340 within 5 min): blank control slope 13.5
Procedure: Rat liver microsomes (HMG-CoA reductase) were commercially purchased, or were prepared by reference to the following method: the male rat liver was removed and rinsed with KESD buffer, and then centrifuged at 12,000 g for 15 min. The supernatant was taken. After centrifugation at 105,000 g for 90 min twice, the centrifuged pellets resulted from centrifugation were collected. To the centrifuged pellets, 8.3% glycerol was added, and the resultant mixture was heated in a 37° C. warm bath for 1 h. The crude product of the rat liver microsomes was purified with saturated ammonium sulfate, and the 35-50% purified fraction was collected. The rat liver microsomes obtained were stored in −80° C. refrigerator.
Compound 5 was dissolved in 75% ethanol solution, at an initial concentration of 8.6 mg/ml, and was subjected to stepwise dilution to obtain 4.3 mg/ml, 2.15 mg/ml. The total volume of the test system was 250 μl, and the concentrations of various ingredients were as follows: 200 mM potassium chloride, 160 mM potassium dihydrogen phosphate, 4 mM ethylenediamine tetra acetic acid, 10 mM dithiothreitol, and the concentrations for the two substrates […] and 3-hydroxy-3-methylglutaryl-coenzyme A were 200 μM and 50 μM, pH 6.8, respectively, wherein 30 μl was added for enzyme, 5 μl was added for the test group, and 5 μl (solvent for dissolving the sample) was added for the control group. The dynamic change in OD340 was determined at 37° C. by Versamax ELISA Microplate Reader. The decreasing rate of OD340 (represented by slope) was measured within 5 min, to evaluate the HMG-CoA reductase activity, and to further evaluate the enzyme-inhibiting activity.

| SMILES | HMG-CoA reductase inhibition, result in words (43-172 μg/ml, dose-response relationship) | Inhibition rate (%) (final concentration 43 μg/ml (inhibitor 2.15 mg/ml, 5 μl)) | Slope (decreasing rate of OD340 within 5 min) (final concentration 43 μg/ml) | Inhibition rate (%) (final concentration 86 μg/ml (inhibitor 4.3 mg/ml, 5 μl)) | Slope (decreasing rate of OD340 within 5 min) (final concentration 86 μg/ml) | Inhibition rate (%) (final concentration 172 μg/ml (inhibitor 8.6 mg/ml, 5 μl)) | Slope (decreasing rate of OD340 within 5 min) (final concentration 172 μg/ml) | Inhibition rate (%) (final concentration 80 μg/ml (inhibitor 4.0 mg/ml, 5 μl)) | Slope (decreasing rate of OD340 within 5 min) (final concentration 80 μg/ml) |
| --- | --- | --- | --- | --- | --- | --- | --- | --- | --- |
| COC(=O)CC(O)CC(O)CCC1c2ccc(C)cc2C=CC1C (stereo not drawn) [Compound 5, methyl 7-(2,6-dimethyl-1,2-dihydronaphthalen-1-yl)-3,5-dihydroxyheptanoate] | inhibited the HMG-CoA reductase activity, and exhibited a dose-response relationship | 19.2 | 10.9 | 33.3 | 9.0 | 42.2 | 7.8 |  |  |
| CC[C@H](C)C(=O)O[C@H]1C[C@@H](C)C=C2C=C[C@H](C)[C@H](CC[C@@H]3C[C@@H](O)CC(=O)O3)[C@H]21 [lovastatin, reference compound] |  |  |  |  |  |  |  | 39.2 | 8.2 |
